pIC50: −log10 of the molar value.
How the values were obtained:
[1] = molecular target: T1, human dihydrofolate Reductase (Homo sapiens, UniProt P00374); assay: inhibition of human dihydrofolate reductase; assay type: biochemical; conditions: human enzyme; read-out: I50
T1 sequence (P00374 1-187): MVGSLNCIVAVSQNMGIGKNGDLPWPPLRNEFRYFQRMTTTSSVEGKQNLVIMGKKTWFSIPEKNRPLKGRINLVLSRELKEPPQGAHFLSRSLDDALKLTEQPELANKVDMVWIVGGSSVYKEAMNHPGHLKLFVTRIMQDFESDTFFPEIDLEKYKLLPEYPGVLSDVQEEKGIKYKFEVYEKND
Source text: In order to unravel the mechanism of action of 1 and 1 e they were examined as inhibitors of human dihydrofolate Reductase.

[2] = test system: rabbit liver aldehyde oxidase; assay: incubation with rabbit liver aldehyde oxidase (conversion to 7-hydroxy derivative); assay type: in vitro ADME
[3] = test system: carboxypeptidase derived from Pseudomonad sp
Source text: (§1) As part of a continuing program aimed at the development of less toxic and more specific antifolate drugs for the treatment of human cancers, the pteridine ring of the experimental anticancer drug methylene-10-deazaaminopterin [MDAM] was replaced with a quinazoline ring.

[4] = test system: folylpolyglutamate synthetase; assay: evaluation in vitro using folylpolyglutamate synthetase (polyglutamylation); assay type: in vitro ADME
[5] = test system: human leukemia and human solid tumor cells; assay: inhibitory activity against the growth of human cancer cells in culture; assay type: cell-based
[6] = test system: leukemia cells that are resistant to MTX by virtue of defective polyglutamylation; assay: growth inhibition of MTX-resistant leukemia cells with defective polyglutamylation vs wild type CCRF-CEM; assay type: cell-based; conditions: defective polyglutamylation line compared to wild type MTX sensitive parental CCRF-CEM
Source text: as §1

allergic rabbits = assay: allergen-induced asthmatic responses and bronchial hyper-responsiveness (BHR) in allergic rabbits; assay type: in vivo, New Zealand White rabbit; conditions: for Asthmatic Response, Early: percent inhibition from control / Asthmatic Response, Late: percent inhibition from control / BHR (bronchial hyper-responsiveness): percent inhibition from control: aerosol 5 mg/ml; for Asthmatic Response, Early: percent inhibition from control: early-phase area under the curve; for Asthmatic Response, Late: percent inhibition from control: late-phase area under the curve; for BHR (bronchial hyper-responsiveness): percent inhibition from control: repeat histamine challenge 24 hour later
Experimental: Experimental Model: Induction of Asthma in Rabbits. New Zealand White Pasturella-free rabbit litter mates were bred and immunized ip within 24 hour of birth with 312 AU dust mite allergen extract [Berkeley Biological, Berkeley, Calif.] in 10% kaolin once every week for one month, then biweekly until the age of 4 months. Mustafa and co-workers used this rabbit model as described in American Journal of Physiology [266, 271-277, 1994]. These allergic animals preferentially produce allergen-specific IgE antibody and typically respond to aeroallergen challenge with an early and late phase asthmatic response and show increased bronchial hyper responsiveness (BHR).
Allergen, Theophylline and Antifolate Challenges: These experiments were carried out as described by Mustafa and co-workers in the Journal, Agents and Actions in 1992 [37, 168-170, 1992 ]. Briefly, allergic rabbits were challenged with ragweed allergen aerosol (10,000 PNU/mL) as described until there was an approximate 50% reduction in dynamic compliance (Cdyn). Pulmonary function was measured at 15 minutes intervals for 6 hours. The rabbit was challenged with indicated antifolates [5 mg/mL, aerosolized for 4 minutes ] followed immediately by the same total dose of allergen. Pulmonary function measurements as described by Mustafa and co-workers in the cited reference were carried out for 6 hours.
To assess the effect of antifolates on allergen-induced changes in the airways, the area under the curve for early and late -phase response was digitalized by computer-assisted plenometry for each rabbit during the six hour time period.

CCRF-CEM = assay: Human Disease Oriented in vitro Antitumor Screen (NCI), total growth inhibition, CCRF-CEM; assay type: cell-based; conditions: Leukemia
Experimental: (§2) Compound 1 was evaluated for its anti-tumor activity using the Human Disease Oriented in vitro Antitumor Screen at the National Cancer Institute.

K562 = assay: Human Disease Oriented in vitro Antitumor Screen (NCI), total growth inhibition, K562; assay type: cell-based; conditions: Leukemia
Experimental: as §2

MOLT-4 = assay: Human Disease Oriented in vitro Antitumor Screen (NCI), total growth inhibition, MOLT-4; assay type: cell-based; conditions: Leukemia
Experimental: as §2

RPMI 8226 = assay: Human Disease Oriented in vitro Antitumor Screen (NCI), total growth inhibition, RPMI 8226; assay type: cell-based; conditions: Leukemia
Experimental: as §2

SR = assay: Human Disease Oriented in vitro Antitumor Screen (NCI), total growth inhibition, SR; assay type: cell-based; conditions: Leukemia
Experimental: as §2

SF 539 = assay: Human Disease Oriented in vitro Antitumor Screen (NCI), total growth inhibition, SF 539; assay type: cell-based; conditions: CNS Cancer
Experimental: as §2

MCF7 = assay: Human Disease Oriented in vitro Antitumor Screen (NCI), total growth inhibition, MCF7; assay type: cell-based; conditions: Breast Cancer
Experimental: as §2

MCF7-ADR-RES = assay: Human Disease Oriented in vitro Antitumor Screen (NCI), total growth inhibition, MCF7-ADR-RES; assay type: cell-based; conditions: Breast Cancer
Experimental: as §2

[7] = test system: selected human tumor cells; assay: Human Disease Oriented in vitro Antitumor Screen (NCI), panel as a whole; assay type: cell-based
Experimental: Compound 1 was evaluated for its anti-tumor activity using the Human Disease Oriented in vitro Antitumor Screen at the National Cancer Institute. […] This unexpected finding may be due to the inability of 1 to undergo metabolic transformation.

## C=C(CC(NC(=O)c1ccc(CCc2ccc3nc(N)nc(N)c3c2)cc1)C(=O)O)C(=O)O (stereo not shown) [Compound 1, 5,8,10-trideaza-4'-methyleneaminopterin]
[1]
  pIC50: 7.18
[2]
  conversion to 7-hydroxy derivative by aldehyde oxidase: completely inert
[3]
  removal of the 4-methyleneglutamate moiety by carboxypeptidase: failed to remove the 4-methyleneglutamate moiety
[4]
  elaboration to polyglutamates: not capable of elaboration to its polyglutamates
[5]
  inhibitory activity against the growth of human cancer cells relative to MTX or MDAM: strikingly more active than either MTX or MDAM
[5]; therapeutically relevant concentrations
  killing of human leukemia and solid tumor cells in culture: able to kill a large number of human luekemia and human solid tumor cells in culture at therapeutically relevant concentrations
[6]
  collateral sensitivity: times more sensitive in inhibiting the growth of MTX-resistant leukemia cells: 4-5 times
Allergic rabbits
  Asthmatic Response, Early: percent inhibition from control: 52%
  Asthmatic Response, Late: percent inhibition from control: 58%
  BHR (bronchial hyper-responsiveness): percent inhibition from control: 47%
Allergic rabbits; relative to MTX and theophylline
  anti-asthmatic activity (in words): not only superior to MTX but also to the well known anti-asthmatic drug theophylline in both early and late asthmatic responses and bronchial hyper responsiveness (BHR)
CCRF-CEM
  Log 10 TGI: < -8.00
K562
  Log 10 TGI: < -8.00
MOLT-4
  Log 10 TGI: -7.4
RPMI 8226
  Log 10 TGI: -7.44
SR
  Log 10 TGI: < -8.00
SF 539
  Log 10 TGI: -6.3
MCF7
  Log 10 TGI: -6.32
MCF7-ADR-RES
  Log 10 TGI: -7.26
[7]; NCI in vitro antitumor screen
  killing of cancer cells (in words): able to kill cancer cells with remarkable potency
[7]; total growth inhibition, NCI panel of Table 2
  times more effective than MTX in this panel: 1,000-10,000 times

## C=C(CC(NC(=O)c1ccc(N(C)Cc2ccc3nc(N)nc(N)c3c2)cc1)C(=O)O)C(=O)O (stereo not shown) [Compound 1d]
[3]
  removal of the 4-methyleneglutamate moiety by carboxypeptidase: failed to remove the 4-methyleneglutamate moiety

## Cn1c(=O)c2[nH]cnc2n(C)c1=O [Theophylline, theophylline]
Allergic rabbits
  Asthmatic Response, Early: percent inhibition from control: 45%
  Asthmatic Response, Late: percent inhibition from control: 49%
  BHR (bronchial hyper-responsiveness): percent inhibition from control: 39%

## CN(Cc1cnc2nc(N)nc(N)c2n1)c1ccc(C(=O)N[C@@H](CCC(=O)O)C(=O)O)cc1 [MTX, methotrexate, reference compound]
Allergic rabbits
  Asthmatic Response, Early: percent inhibition from control: 29%
  Asthmatic Response, Late: percent inhibition from control: 37%
  BHR (bronchial hyper-responsiveness): percent inhibition from control: 32%
CCRF-CEM
  Log 10 TGI: -3.77
K562
  Log 10 TGI: -3.3
MOLT-4
  Log 10 TGI: -3.55
RPMI 8226
  Log 10 TGI: -3.66
SR
  Log 10 TGI: -3.25
SF 539
  Log 10 TGI: -3.66

Reference: patent US5912251A, “Metabolically inert anti-inflammatory and anti-tumor antifolates” (priority 1998, dated 1999)
